Experimental data published in patent US20120004166A1, “ARYLOXYALKYLENE-SUBSTITUTED HYDROXYPHENYLHEXYNOIC ACIDS, PROCESS FOR PREPARATION THEREOF AND USE THEREOF AS A MEDICAMENT” (SANOFI, priority 2010, published 2012).

Each compound was assayed against T1, GPCR GPR40 (Rattus norvegicus, UniProt Q8K3T4) (assay: In vitro FLIPR assay with recombinant cells which express the GPCR GPR40). Settings: recombinant HEK293 cells expressing rat GPR40; agonist-induced change in intracellular Ca2+ (Fluo-4, FLIPR); 100% = 10 μM linoleic acid.
T1 construct: expressed in transfected cells; host or cells: HEK293
T1 sequence (Q8K3T4 whole entry): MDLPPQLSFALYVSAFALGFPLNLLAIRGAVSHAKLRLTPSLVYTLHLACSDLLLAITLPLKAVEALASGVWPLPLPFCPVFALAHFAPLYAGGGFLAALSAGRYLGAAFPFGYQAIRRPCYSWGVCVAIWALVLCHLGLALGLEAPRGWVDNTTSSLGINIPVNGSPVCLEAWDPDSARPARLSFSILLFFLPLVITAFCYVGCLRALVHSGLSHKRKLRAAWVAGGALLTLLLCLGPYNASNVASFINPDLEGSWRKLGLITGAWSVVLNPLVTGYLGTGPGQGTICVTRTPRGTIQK
Assay type: cell-based
Experimental: In Vitro FLIPR Assay with Recombinant Cells which Express the GPCR GPR40
Function-testing assays were performed by means of the FLIPR technique (“Fluorescence Imaging Plate Reader”, Molecular Devices Corp.). To this end, agonist-induced changes in the intracellular concentration of Ca^2+ were determined in recombinant HEK293 cells which expressed the GPCR GPR40 (species: rat). For the studies, cells were sown into 96-well microtiter plates (60 000 cells/well) and left to grow overnight. The medium was removed and the cells were incubated in buffer which contained the fluorescent dye Fluo-4. After this loading with dye, the cells were washed, test substance was added and changes in the intracellular Ca^2+ concentration were measured in the FLIPR unit. Results were presented as the percentage change relative to the control (0%: no test substance added; 100%: 10 μM reference agonist linoleic acid added) and used to calculate dose/effect curves, and EC50 values were determined.
In the case of CC#CC(CC(=O)O)c1ccc(OCCC(C)Oc2ccc(C(F)(F)F)cc2)cc1 (single isomer, unassigned) [Example 23, 3-{4-[(S or R)-3-(4-Trifluoromethylphenoxy)butoxy]phenyl}hex-4-ynoic acid], the EC50 is reported as 210 nM.
For CC#CC(CC(=O)O)c1ccc(OCCC(C)Oc2ccc(C(F)(F)F)cc2)cc1 (single isomer, unassigned) [Example 24, 3-{4-[(R or S)-3-(4-Trifluoromethylphenoxy)butoxy]phenyl}hex-4-ynoic acid], the EC50 was 980 nM.
CC#CC(CC(=O)O)c1ccc(OCCCOc2cccc(C(C)(C)C)c2)cc1 (centres unmarked) [Example 1, 3-{4-[3-(3-tert-Butylphenoxy)propoxy]phenyl}hex-4-ynoic acid] showed an EC50 of 440 nM.
CC#CC(CC(=O)O)c1ccc(OCCOc2cccc(C(C)(C)C)c2)cc1 (centres unmarked) [Example 2, 3-{4-[2-(3-tert-Butylphenoxy)ethoxy]phenyl}hex-4-ynoic acid] gave an EC50 of 50 nM.
CC#CC(CC(=O)O)c1ccc(OCCCCOc2cccc(C(C)(C)C)c2)cc1 (centres unmarked) [Example 3, 3-{4-[4-(3-tert-Butylphenoxy)butoxy]phenyl}hex-4-ynoic acid] showed an EC50 of 350 nM.
Work on CC#CC(CC(=O)O)c1ccc(OCCCOc2ccc(C(F)(F)F)cc2Cl)cc1 (centres unmarked) [Example 4, 3-{4-[3-(2-chloro-4-trifluoromethylphenoxy)propoxy]phenyl}hex-4-ynoic acid] yielded an EC50 of 110 nM.
With CC#CC(CC(=O)O)c1ccc(OCCCOc2cc(C(F)(F)F)cc(C(F)(F)F)c2)cc1 (centres unmarked) [Example 5, 3-{4-[3-(3,5-bis(Trifluoromethyl)phenoxy)propoxy]phenyl}hex-4-ynoic acid] the EC50 was 400 nM.
For CC#CC(CC(=O)O)c1ccc(OCCCOc2ccccc2C(F)(F)F)cc1 (centres unmarked) [Example 6, 3-{4-[3-(2-Trifluoromethylphenoxy)propoxy]phenyl}hex-4-ynoic acid], the EC50 was 170 nM.
With CC#CC(CC(=O)O)c1ccc(OCCCOc2cccc(C(F)(F)F)c2Cl)cc1 (centres unmarked) [Example 7, 3-{4-[3-(2-Chloro-3-trifluoromethylphenoxy)propoxy]phenyl}hex-4-ynoic acid] the EC50 was 720 nM.
CC#CC(CC(=O)O)c1ccc(OCCCOc2ccc(C(F)(F)F)nc2)cc1 (centres unmarked) [Example 8, 3-{4-[3-(6-Trifluoromethylpyridin-3-yloxy)propoxy]phenyl}hex-4-ynoic acid] gave an EC50 of 350 nM.
Compound CC#CC(CC(=O)O)c1ccc(OCCCOc2cc(C(F)(F)F)ccc2Cl)cc1 (centres unmarked) [Example 9, 3-{4-[3-(2-Chloro-5-trifluoromethylphenoxy)propoxy]phenyl}hex-4-ynoic acid] has an EC50 of 610 nM.
CC#CC(CC(=O)O)c1ccc(OCCOc2ccc(C(F)(F)F)nc2)cc1 (centres unmarked) [Example 10, 3-{4-[2-(6-Trifluoromethylpyridin-3-yloxy)ethoxy]phenyl}hex-4-ynoic acid] gave an EC50 of 550 nM.
CC#CC(CC(=O)O)c1ccc(OCCCOc2ccc(C(F)(F)F)cc2)cc1 (centres unmarked) [Example 11, 3-{4-[3-(4-Trifluoromethylphenoxy)propoxy]phenyl}hex-4-ynoic acid] gave an EC50 of 80 nM.
CC#CC(CC(=O)O)c1ccc(OCCCOc2cccc(C)c2)cc1 (centres unmarked) [Example 12, 3-{4-[3-m-Tolyloxypropoxy]phenyl}hex-4-ynoic acid] gave an EC50 of 70 nM.
In the case of CC#CC(CC(=O)O)c1ccc(OCCOc2cccc(Cl)c2)cc1 (centres unmarked) [Example 13], the EC50 is reported as 40 nM.
CC#CC(CC(=O)O)c1ccc(OCCOc2cccc(C)c2)cc1 (centres unmarked) [Example 14, 3-{4-[2-m-Tolyloxyethoxy]phenyl}hex-4-ynoic acid] was tested, and the EC50 was 50 nM.
CC#CC(CC(=O)O)c1ccc(OCCOc2cccc(C(F)(F)F)c2)cc1 (centres unmarked) [Example 15, 3-{4-[2-(3-Trifluoromethylphenoxy)ethoxy]phenyl}hex-4-ynoic acid] showed an EC50 of 60 nM.
CC#CC(CC(=O)O)c1ccc(OCCOc2ccc(C(C)(C)C)cc2)cc1 (centres unmarked) [Example 16, 3-{4-[2-(4-tert-Butylphenoxy)ethoxy]phenyl}hex-4-ynoic acid] showed an EC50 of 610 nM.
CC#CC(CC(=O)O)c1ccc(OCCOc2ccccc2)cc1 (centres unmarked) [Example 17, 3-{4-[2-Phenoxyethoxy]phenyl}hex-4-ynoic acid] was tested, and the EC50 was 360 nM.
With CC#CC(CC(=O)O)c1ccc(OCCOc2ccccc2F)cc1 (centres unmarked) [Example 18, 3-{4-[2-(2-Fluorophenoxy)ethoxy]phenyl}hex-4-ynoic acid] the EC50 was 460 nM.
Work on CC#CC(CC(=O)O)c1ccc(OCCOc2ccccc2Cl)cc1 (centres unmarked) [Example 19, 3-{4-[2-(2-Chlorophenoxy)ethoxy]phenyl}hex-4-ynoic acid] yielded an EC50 of 180 nM.
Compound CC#CC(CC(=O)O)c1ccc(OCCOc2ccccc2C)cc1 (centres unmarked) [Example 20, 3-{4-[2-o-Tolyloxyethoxy]phenyl}hex-4-ynoic acid] has an EC50 of 80 nM.
CC#CC(CC(=O)O)c1ccc(OCCOc2ccccc2OC)cc1 (centres unmarked) [Example 21, 3-{4-[2-(2-Methoxyphenoxy)ethoxy]phenyl}hex-4-ynoic acid] was tested, and the EC50 was 800 nM.
Compound CC#CC(CC(=O)O)c1ccc(OCCOc2ccccc2C(F)(F)F)cc1 (centres unmarked) [Example 22, 3-{4-[2-(2-Trifluoromethylphenoxy)ethoxy]phenyl}hex-4-ynoic acid] has an EC50 of 50 nM.
Work on CC#CC(CC(=O)O)c1ccc(OC(C)CCOc2ccc(C(F)(F)F)cc2)cc1 (centres unmarked) [Example 25, 3-{4-[1-Methyl-3-(4-trifluoromethylphenoxy)propoxy]phenyl}hex-4-ynoic acid] yielded an EC50 of 1990 nM.
CC#CC(CC(=O)O)c1ccc(OCCC(C)Oc2cccc(C)c2)cc1 (centres unmarked) [Example 26, 3-[4-(3-m-Tolyloxybutoxy)phenyl]-hex-4-ynoic acid] showed an EC50 of 50 nM.
Work on CC#CC(CC(=O)O)c1ccc(OCC[C@@H](C)Oc2cccc(C)c2)cc1 (stereo partly drawn) [Example 27, 3-[4-((R)-3-m-Tolyloxybutoxy)phenyl]hex-4-ynoic acid] yielded an EC50 of 50 nM.
Work on CC#CC(CC(=O)O)c1ccc(OCC[C@H](C)Oc2cccc(C)c2)cc1 (stereo partly drawn) [Example 28, 3-[4-((S)-3-m-Tolyloxybutoxy)phenyl]hex-4-ynoic acid] yielded an EC50 of 50 nM.
CC#CC(CC(=O)O)c1ccc(OCC[C@@H](C)Oc2ccccc2C(F)(F)F)cc1 (stereo partly drawn) [Example 29, 3-{4-[(R)-3-(2-Trifluoromethylphenoxy)butoxy]phenyl}hex-4-ynoic acid] was tested, and the EC50 was 170 nM.
In the case of CC#CC(CC(=O)O)c1ccc(OCC[C@H](C)Oc2ccccc2C(F)(F)F)cc1 (stereo partly drawn) [Example 30, 3-{4-[(S)-3-(2-Trifluoromethylphenoxy)butoxy]phenyl}hex-4-ynoic acid], the EC50 is reported as 140 nM.
CC#CC(CC(=O)O)c1ccc(OCC[C@@H](C)Oc2ccc(C(F)(F)F)cc2Cl)cc1 (stereo partly drawn) [Example 31, 3-{4-[(R)-3-(2-Chloro-4-trifluoromethylphenoxy)butoxy]phenyl}hex-4-ynoic acid] showed an EC50 of 640 nM.
Work on CC#CC(CC(=O)O)c1ccc(OCC[C@H](C)Oc2ccc(C(F)(F)F)cc2Cl)cc1 (stereo partly drawn) [Example 32, 3-{4-[(S)-3-(2-Chloro-4-trifluoromethylphenoxy)butoxy]phenyl}hex-4-ynoic acid] yielded an EC50 of 770 nM.
CC#CC(CC(=O)O)c1ccc(OC(C)CCOc2cccc(C(C)(C)C)c2)cc1 (centres unmarked) [Example 33, 3-{4-[3-(3-tert-Butylphenoxy)-1-methylpropoxy]phenyl}hex-4-ynoic acid] was tested, and the EC50 was 1610 nM.
In the case of CC#CC(CC(=O)O)c1ccc(OCC(C)COc2ccc(C(F)(F)F)cc2)cc1 (centres unmarked) [Example 34, 3-{4-[2-Methyl-3-(4-trifluoromethylphenoxy)propoxy]phenyl}hex-4-ynoic acid], the EC50 is reported as 810 nM.
For CC#CC(CC(=O)O)c1ccc(OCC(C)COc2cccc(C(C)(C)C)c2)cc1 (centres unmarked) [Example 35, 3-{4-[3-(3-tert-Butylphenoxy)-2-methylpropoxy]phenyl}hex-4-ynoic acid], the EC50 was 1090 nM.
With CC#CC(CC(=O)O)c1ccc(OCC(C)COc2cc(C)ccc2C(C)C)cc1 (centres unmarked) [Example 36, 3-{4-[3-(2-Isopropyl-5-methylphenoxy)-2-methylpropoxy]phenyl}hex-4-ynoic acid] the EC50 was 1590 nM.
CC#CC(CC(=O)O)c1ccc(OCC(C)COc2ccc(C(C)(C)C)cc2Cl)cc1 (centres unmarked) [Example 37, 3-{4-[3-(4-tert-Butyl-2-chlorophenoxy)-2-methylpropoxy]phenyl}hex-4-ynoic acid] was tested, and the EC50 was 6010 nM.
For CC#CC(CC(=O)O)c1ccc(OCC(C)COc2ccccc2C(F)(F)F)cc1 (centres unmarked) [Example 38, 3-{4-[2-methyl-3-(2-trifluoromethylphenoxy)propoxy]phenyl}hex-4-ynoic acid], the EC50 was 730 nM.
With CC#CC(CC(=O)O)c1ccc(OCC(C)COc2cc(C(C)C)ccc2C)cc1 (centres unmarked) [Example 39, 3-{4-[3-(5-Isopropyl-2-methylphenoxy)-2-methylpropoxy]phenyl}hex-4-ynoic acid] the EC50 was 3200 nM.
CC#CC(CC(=O)O)c1ccc(OCC(C)COc2ccc(Br)c(Cl)c2)cc1 (centres unmarked) [Example 40, 3-{4-[3-(4-Bromo-3-chlorophenoxy)-2-methylpropoxy]phenyl}hex-4-ynoic acid] showed an EC50 of 830 nM.
CC#CC(CC(=O)O)c1ccc(OCC(C)(C)COc2ccc(C(F)(F)F)cc2)cc1 (centres unmarked) [Example 41, 3-{4-[2,2-dimethyl-3-(4-trifluoromethylphenoxy)propoxy]phenyl}hex-4-ynoic acid] gave an EC50 of 800 nM.
Work on CC#CC(CC(=O)O)c1ccc(OCC(CC)COc2ccc(C(F)(F)F)cc2)cc1 (centres unmarked) [Example 42, 3-{4-[2-(4-Trifluoromethylphenoxymethyl)butoxy]phenyl}hex-4-ynoic acid] yielded an EC50 of 1780 nM.
CC#CC(CC(=O)O)c1ccc(OCC(CC)COc2cccc(C(C)(C)C)c2)cc1 (centres unmarked) [Example 43, 3-{4-[2-(3-tert-Butylphenoxymethyl)butoxy]phenyl}hex-4-ynoic acid] was tested, and the EC50 was 2030 nM.
For CC#CC(CC(=O)O)c1ccc(OCC(CCC)COc2ccc(C(F)(F)F)cc2)cc1 (centres unmarked) [Example 44, 3-{4-[2-(4-Trifluoromethylphenoxymethyl)pentyloxy]phenyl}hex-4-ynoic acid], the EC50 was 5100 nM.
